Data published in patent publication US20220259235A1, “EGFR Inhibitor, Composition, and Preparation Method Therefor” (BETTA PHARMACEUTICALS CO., LTD, priority 2019, published 2022).
Where two headings read alike, the source gives them in different places.

Assays:
[1] = target: EGFR Δ19del/T790M/C797S (Homo sapiens, UniProt P00533, T790M/C797S, form not given); assay: EGFR Δ19del/T790M/C797S kinase test (mobility shift, Caliper EZ Reader); format: biochemical; settings: kinase enzymatic activity
Procedure: Mobility variation analysis was performed to determine the affinity of the compound for EGFRΔ19del/T790M/C797S. The enzymatic reaction scheme is as follows:
1. Prepare 1* kinase buffer as follows:
2. Preparation of compound concentration gradient: The test compound was tested with an initial concentration of 3000 nM or 100 nM, diluted in a 384 source plate to a 100% DMSO solution with 100-fold final concentration, and the compound is 3-fold diluted with Precision to 10 concentrations. A dispenser Echo 550 was used to transfer 250 nL 100-fold final concentration of the compound to the target plate OptiPlate-384F.
3. Prepare 2.5-fold final concentration of kinase solution with 1×Kinase buffer;
4. Add 10 μL of 2.5-fold final concentration of kinase solution to the compound well and the positive control well; add 10 μL of 1×Kinase buffer to the negative control well.
5. Centrifuge at 1000 rpm for 30 seconds, shake the reaction plate for well mixation, and then incubate at room temperature for 10 minutes.
6. Prepare a mixture of ATP and Kinase substrate at 5/3-fold final concentration with 1×Kinase buffer.
7. Add 15 μL mixture of 5/3-fold final concentration of ATP and substrate to start reaction.
8. Centrifuge the 384-well plate at 1000 rpm for 30 seconds, shake it well and then incubate it at room temperature for corresponding time.
9. Add 30 μL of stop detection solution to stop the kinase reaction, centrifuge at 1000 rpm for 30 seconds, shake it well.
10. Read conversion rate with Caliper EZ Reader.
% Inhibition=((Conversion%_max−Conversion%_sample)/(Conversion%_max−Conversion%_min))*100
Wherein: Conversion%_sample is the sample conversion rate reading; Conversion%_min: Mean value of negative control wells, representing the conversion rate reading of wells without enzymatic activity; Conversion%_max: Mean value of positive control wells, representing the conversion rate reading of wells without compound inhibition.
The dose-effect curve was fitted with concentration log value as X-axis and percentage inhibition rate as Y-axis. Log (inhibitor) vs. Response—Variable Slope of GraphPad Prism 5 was used to fit the dose-effect curve to obtain IC50 value of enzymatic activity for each compound.
The calculation formula is as Y=Bottom (Top−Bottom)/(1+10^((LogIC50−X)*HillSlope)).
As illustrated in examples, IC50 value is within the following range for the compound of the present invention: “A” represents “IC50≤1nM”; “B” represents “1 nM<IC50≤100nM”.

[2] = target: Ba/F3-L858R/T790M/C797S (Homo sapiens, UniProt P00533, T790M/C797S/L858R, cells depend on it); assay: Ba/F3-L858R/T790M/C797S cell proliferation assay (CellTiter Glo, 72 h); format: cell-based; settings: CTG, read-out: BaF3 L858R/T790M/C797S IC50
Procedure: (§1) Cell line: Ba/F3 cells with stable overexpression of Δ19del/T790M/C797S or L858R/T790M/C797S mutant genes, named Ba/F3-Δ19del/T790M/C797S and Ba/F3-L858R/T790M/C797S, and A431 EGFR wild-type cell line.
(§2) RPMI 1640 and 10% FBS and 1% PS; _EM, 10% PBS and 1% PS
(§3) a) Dilute the test compound (20 mM stock solution) to 10 mM with 100% DMSO as the starting concentration, and then serially dilute 3 times with a “9+0” concentration in 96-well dilution plate (Cat #P-05525, Labcyte);
(§4) b) Dilute compound solution thereof to 1:100 in medium to prepare 10-fold working solution;
(§5) a) Centrifuge the growth cells in logarithmic phase at 1000 rpm for 5 minutes, resuspend the cells in culture medium, and then count the cells;
(§6) b) Inoculate the cells into a 96-well cell culture plate with a density of 2000 cells/well;
(§7) a) The compound prepared in Step 2 was added to a cell plate with 15 μL per well at final concentrations of 1000, 333, 111.1, 37, 12.3, 4.1, 1.4, 0.5, 0.2, and 0 nM. The final concentration of DMSO was 0.1%. The blank control well is with medium (0.1% DMSO).
(§8) b) Incubate cells in an incubatorother 72 hours;
(§9) a) Take out the 96-well cell culture plate and add 50 μl CTG reagent (CellTiter Glo kit, promega, Cat #G7573);
(§10) b) Shake the plate for 2 minutes and let cool at room temperature for 10 minutes,
(§11) c) Read luminous signal value with Perkin Elmer reader.
(§12) Analysis of Experimental Data
(§13) The data were analyzed by GraphPad Prism 6.0 software to obtain the fitting curve of compound activity.
(§14) Fining compound IC50 from nonlinear regression equation:
(§15) Y=Min+(Max−Min)/(1+10^((LogIC50−X)*slope));
(§16) X: Logarithm of compound concentration; Y: luminous signal
(§17) As illustrated in examples, IC50 value is within the following range for the compound of the present invention: “A” represents “IC50≤50 nM”; “B” represents “50 nM<IC50<100 nM”.

[3] = target: Ba/F3-Δ19del/T790M/C797S (Homo sapiens, UniProt P00533, T790M/C797S, cells depend on it, form not given); assay: Ba/F3-Δ19del/T790M/C797S cell proliferation assay (CellTiter Glo, 72 h); format: cell-based; settings: CTG, read-out: BaF3 Δ19del/T790M/C797S IC50
Procedure: as §1, §2, §3, §4, §5, §6, §7, §8, §9, §10, §11, §12, §13, §14, §15, §16, §17

[4] = test system: A431 EGFR wild-type cell line; assay: A431 EGFR wild-type cell proliferation assay (CellTiter Glo, 72 h); format: cell-based; settings: Homo sapiens, A-431, CTG, read-out: A431 EGFR WT IC50
Procedure: as §1, §2, §3, §4, §5, §6, §7, §8, §9, §10, §11, §12, §13, §14, §15, §16, §17

Chain of Ba/F3-L858R/T790M/C797S (P00533 whole entry T790M/C797S/L858R): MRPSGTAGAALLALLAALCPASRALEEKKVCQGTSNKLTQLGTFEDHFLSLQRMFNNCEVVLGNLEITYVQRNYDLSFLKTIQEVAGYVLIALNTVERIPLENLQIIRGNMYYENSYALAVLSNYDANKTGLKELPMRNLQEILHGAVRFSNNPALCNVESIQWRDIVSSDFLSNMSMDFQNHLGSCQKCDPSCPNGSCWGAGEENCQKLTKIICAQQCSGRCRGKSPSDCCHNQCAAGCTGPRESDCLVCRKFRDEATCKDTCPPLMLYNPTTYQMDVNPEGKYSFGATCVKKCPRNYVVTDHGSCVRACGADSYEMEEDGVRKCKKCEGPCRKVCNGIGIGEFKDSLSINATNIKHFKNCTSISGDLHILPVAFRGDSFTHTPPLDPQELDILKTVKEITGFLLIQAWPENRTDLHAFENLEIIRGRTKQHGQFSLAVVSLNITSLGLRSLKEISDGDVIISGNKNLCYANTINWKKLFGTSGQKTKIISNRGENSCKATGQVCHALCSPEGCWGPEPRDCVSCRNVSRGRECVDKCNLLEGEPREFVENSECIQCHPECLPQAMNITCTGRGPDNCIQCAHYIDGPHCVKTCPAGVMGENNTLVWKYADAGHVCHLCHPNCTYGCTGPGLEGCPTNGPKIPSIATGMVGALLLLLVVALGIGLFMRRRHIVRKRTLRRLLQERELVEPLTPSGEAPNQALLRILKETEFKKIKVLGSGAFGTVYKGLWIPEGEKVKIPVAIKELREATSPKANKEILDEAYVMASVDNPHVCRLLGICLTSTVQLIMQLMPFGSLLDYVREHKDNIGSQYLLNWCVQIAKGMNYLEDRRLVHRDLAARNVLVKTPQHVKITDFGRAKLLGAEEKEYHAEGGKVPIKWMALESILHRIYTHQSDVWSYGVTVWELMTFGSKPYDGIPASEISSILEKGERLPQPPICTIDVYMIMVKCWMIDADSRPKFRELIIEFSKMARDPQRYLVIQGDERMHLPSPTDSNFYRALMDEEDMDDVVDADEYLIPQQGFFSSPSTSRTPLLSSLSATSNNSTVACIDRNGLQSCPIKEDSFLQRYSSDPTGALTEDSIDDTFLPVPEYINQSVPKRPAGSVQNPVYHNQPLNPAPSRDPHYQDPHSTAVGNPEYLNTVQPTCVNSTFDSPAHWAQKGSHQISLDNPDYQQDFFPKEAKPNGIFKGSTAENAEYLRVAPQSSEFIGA
Chain of Ba/F3-Δ19del/T790M/C797S (P00533 with tags, fused parts or gaps DEL746-750/T790M/C797S, form open): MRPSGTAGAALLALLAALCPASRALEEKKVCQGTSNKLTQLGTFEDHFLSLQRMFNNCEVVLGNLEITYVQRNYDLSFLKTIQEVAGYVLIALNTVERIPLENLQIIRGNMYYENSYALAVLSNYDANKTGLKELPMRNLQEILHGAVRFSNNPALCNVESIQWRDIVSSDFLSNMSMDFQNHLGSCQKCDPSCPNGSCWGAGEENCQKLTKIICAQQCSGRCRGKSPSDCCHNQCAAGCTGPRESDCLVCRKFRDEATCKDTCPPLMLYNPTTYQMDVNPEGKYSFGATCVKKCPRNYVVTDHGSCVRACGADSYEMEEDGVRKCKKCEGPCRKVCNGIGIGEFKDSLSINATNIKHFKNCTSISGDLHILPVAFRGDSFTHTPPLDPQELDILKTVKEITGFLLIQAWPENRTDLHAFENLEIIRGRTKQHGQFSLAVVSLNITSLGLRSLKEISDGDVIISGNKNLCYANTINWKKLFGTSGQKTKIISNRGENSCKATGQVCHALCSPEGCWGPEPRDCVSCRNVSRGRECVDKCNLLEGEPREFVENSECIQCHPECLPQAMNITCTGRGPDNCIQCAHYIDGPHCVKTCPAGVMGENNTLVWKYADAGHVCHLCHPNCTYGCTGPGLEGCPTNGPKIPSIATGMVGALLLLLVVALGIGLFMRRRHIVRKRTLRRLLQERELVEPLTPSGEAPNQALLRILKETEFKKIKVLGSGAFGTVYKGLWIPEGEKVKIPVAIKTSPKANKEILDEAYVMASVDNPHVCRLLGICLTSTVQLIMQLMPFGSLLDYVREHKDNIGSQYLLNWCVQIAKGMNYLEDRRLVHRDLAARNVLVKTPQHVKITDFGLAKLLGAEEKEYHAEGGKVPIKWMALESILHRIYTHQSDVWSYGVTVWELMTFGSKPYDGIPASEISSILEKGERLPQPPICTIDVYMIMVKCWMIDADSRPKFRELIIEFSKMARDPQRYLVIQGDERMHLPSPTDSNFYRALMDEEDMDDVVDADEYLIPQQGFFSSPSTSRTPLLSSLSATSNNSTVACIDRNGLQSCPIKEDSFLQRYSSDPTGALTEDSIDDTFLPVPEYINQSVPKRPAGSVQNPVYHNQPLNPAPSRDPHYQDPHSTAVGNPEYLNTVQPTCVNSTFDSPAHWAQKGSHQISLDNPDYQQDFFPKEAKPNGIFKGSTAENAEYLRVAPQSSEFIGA
Chain of EGFR Δ19del/T790M/C797S (P00533 with tags, fused parts or gaps DEL746-750/T790M/C797S, form open): as above

Row | SMILES | IC50 ([1]; class symbols) [µM] | GI50 ([2]; class symbols) [µM] | GI50 ([3]; class symbols) [µM] | IC50 ([1]; numeric values) [µM] | GI50 ([2]; numeric values) [µM] | GI50 ([3]; numeric values) [µM] | IC50 [4] [µM]
1 | COc1cc(N2CCC(N3CCN(C)CC3)CC2)c(-c2cnn(C)c2)cc1Nc1ncc(Br)c(Nc2ccc(C3CC3)c(C)c2P(C)(C)=O)n1 [Compound 12] | ≤ 0.001 | ≤ 0.05 | ≤ 0.05 | – | – | – | –
2 | COc1cc(N2CCN(C3CCCC3)CC2)c(-c2cnn(C)c2)cc1Nc1ncc(Br)c(Nc2ccc3nc(C4CC4)ccc3c2P(C)(C)=O)n1 [Compound 27, (6-((5-Bromo-2-((4-(4-cyclopentylpiperazine-1-yl)-2-methoxy-5-(1-methyl-1H-pyrazole-4-Yl)phenyl)amino)pyrimidin-4-yl)amino)-2-cyclopropylquinolin-5-yl)dimethylphosphine oxide] | – | – | – | 0.0013 | 0.0087 | – | 1.17
3 | COc1cc(N2CCC(N(C)C)CC2)c(-c2cn[nH]c2)cc1Nc1ncc(Cl)c(Nc2ccc3nccnc3c2P(C)(C)=O)n1 [Compound 3, (6-((5-Chloro-2-((4-(4-(dimethylamino)piperidin-1-yl)-2-methoxy-5-(1H-pyrazol-4-yl)benzene)amino)pyrimidin-4-yl)amino)quinoxalin-5-yl)dimethylphosphine oxide] | – | – | – | 0.0003 | 0.0604 | 0.0604 | 0.571
4 | COc1cc(N2CCC(N3CCCC3)CC2)c(-c2cnn(C)c2)cc1Nc1ncc(Cl)c(Nc2ccc(C)c(C)c2P(C)(C)=O)n1 [Compound 6] | ≤ 0.001 | ≤ 0.05 | ≤ 0.05 | – | – | – | –
5 | CCn1cc(-c2cc(Nc3nccc(Nc4ccc(C)c(C)c4P(C)(C)=O)n3)c(OC)cc2N2CCOCC2)cn1 [Compound 23, (6-(2-(5-((1-Ethyl-1hydro-pyrazol-4-yl)-2-methoxy-4-morpholinophenyl)amino)pyrimidine-4-amino)-2,3dimethylphenyl) dimethylphosphine oxide] | – | – | – | 0.0014 | – | – | –
6 | COc1cc(N2CCC(N(C)C)CC2)c(-c2cnn(C)c2)cc1Nc1ncc(Cl)c(Nc2ccc(C)c(C)c2P(C)(C)=O)n1 [Compound 4, (6-((5-Chloro-2-((4-(4-(dimethylamino)piperidine-1-yl)-2-methoxy-5-(1-methyl-1H-pyrazole-4-yl)phenyl)amino)pyrimidine-4-yl)amino)-2,3-dimethylphenyl)dimethylphosphine oxide] | ≤ 0.001 | – | – | – | 0.0149 | 0.0102 | 0.192
7 | COc1cc(N2CCC(N(C)C)CC2)c(-c2cnn(C)c2)cc1Nc1ncc(Cl)c(Nc2ccc3nccnc3c2P(C)(C)=O)n1 [Compound 2] | – | – | – | 0.0002 | 0.0183 | 0.0065 | 0.11
8 | COc1cc(N2CCC(N3CCN(C)CC3)CC2)c(-c2cnn(C)c2)cc1Nc1ncc(Br)c(Nc2ccc(C)c(C)c2P(C)(C)=O)n1 [Compound 14, (6-((5-Bromo-2-((2-methoxy-5-(1-methyl-1h-pyrazol-4-yl)-4-(4-(4-methylpiperazine-1-yl)piperidine-1-yl)phenyl)amino)pyrimidine-4-yl)amino)-2,3-dimethylphenyl)dimethylphosphine oxide] | ≤ 0.001 | ≤ 0.05 | ≤ 0.05 | – | – | – | –
9 | CCn1cc(-c2cc(Nc3ncc(Br)c(Nc4ccc5nc(C6CC6)ccc5c4P(C)(C)=O)n3)c(OC)cc2N2CCOCC2)cn1 [Compound 24] | – | – | – | 0.017 | – | – | –
10 | COc1cc(N2CCC3(CC2)CN(C)C3)c(-c2cnn(C)c2)cc1Nc1ncc(Cl)c(Nc2ccc(C)c(C)c2P(C)(C)=O)n1 [Compound 7] | 0.001 to 0.1 | 0.05 to 0.1 | 0.05 to 0.1 | – | – | – | –
11 | COc1cc(N2CCN3CCCC[C@@H]3C2)c(-c2cnn(C)c2)cc1Nc1ncc(Cl)c(Nc2ccc(C)c(C)c2P(C)(C)=O)n1 [Compound 8, (R)-(6-((5-chloro-2-((2-methoxy-5-(1-methyl-1H-pyrazol-4-yl)-4-(octahydro-2hydro-Pyridine[1,2-a]pyrazine-2-yl)phenyl)amino)pyrimidine-4-yl)amino)-2,3-dimethylphenyl)dimethylphosphine oxide] | ≤ 0.001 | ≤ 0.05 | ≤ 0.05 | – | – | – | –

Second part, the molecule after the results:

Row | IC50 ([1]; class symbols) [µM] | GI50 ([2]; class symbols) [µM] | GI50 ([3]; class symbols) [µM] | IC50 ([1]; numeric values) [µM] | GI50 ([2]; numeric values) [µM] | GI50 ([3]; numeric values) [µM] | IC50 [4] [µM] | SMILES
12 | ≤ 0.001 | ≤ 0.05 | ≤ 0.05 | – | – | – | – | COc1cc(N2CCC(N3CCCCC3)CC2)c(-c2cnn(C)c2)cc1Nc1ncc(Br)c(Nc2ccc3nccnc3c2P(C)(C)=O)n1 [Compound 11, (6-((2-((4-([1,4′-Bipiperidine]-1′-yl)-2-methoxy-5-(1-methyl-1H-pyrazole-4-yl)phenyl)amino)-5-bromopyrimidin-4-yl)amino)quinoxalin-5-yl)dimethylphosphine oxide]
13 | – | – | – | 0.0002 | 0.0004 | 0.0007 | 0.152 | CCn1cc(-c2cc(Nc3ncc(Br)c(Nc4ccc(C)c(C)c4P(C)(C)=O)n3)c(OC)cc2N2CCC(N3CCCCC3)CC2)cn1 [Compound 20]
14 | – | – | – | 0.0002 | 0.0082 | 0.0067 | 0.112 | COc1cc(N2CCN3CCCCC3C2)c(-c2cnn(C)c2)cc1Nc1ncc(Cl)c(Nc2ccc3nccnc3c2P(C)(C)=O)n1 (stereo in doubt) [Compound 18]
15 | ≤ 0.001 | ≤ 0.05 | ≤ 0.05 | – | – | – | – | COc1cc(N2CCC(N3CCCCC3)CC2)c(-c2cnn(C)c2)cc1Nc1ncc(Br)c(Nc2ccc(C)c(C)c2P(C)(C)=O)n1 [Compound 15, (6-((2-((4-([1,4′-Bipiperidine]-1′-yl)-2-methoxy-5-(1-methyl-1H-pyrazole-4-yl)phenyl)amino)-5-bromopyrimidine-4-yl)amino)-2,3-dimethylphenyl)dimethylphosphine oxide]
16 | – | – | – | 0.0003 | 0.004 | 0.0025 | 0.107 | COc1cc(N2CCN(C3CCCC3)CC2)c(-c2cnn(C)c2)cc1Nc1ncc(Br)c(Nc2ccc3nccnc3c2P(C)(C)=O)n1 [Compound 25, (6-((5-Bromo-2-((4-(4-cyclopentylpiperazine-1yl)-2-methoxy-5-(1-methyl-1H-pyrozole-4-yl)phenyl)amino)pyrimidin-4-yl)amino)quinoxalin-5-yl) dimethylphosphine oxide]
17 | ≤ 0.001 | ≤ 0.05 | ≤ 0.05 | – | – | – | – | COc1cc(N2CCC(N3CCCCC3)CC2)c(-c2cnn(C)c2)cc1Nc1ncc(Br)c(Nc2ccc(C3CC3)c(C)c2P(C)(C)=O)n1 [Compound 13]
18 | ≤ 0.001 | ≤ 0.05 | ≤ 0.05 | – | – | – | – | COc1cc(N2CCOCC2)c(-c2cnn(C)c2)cc1Nc1ncc(Br)c(Nc2ccc3nccnc3c2P(C)(C)=O)n1 [Compound 16]
19 | ≤ 0.001 | ≤ 0.05 | ≤ 0.05 | – | – | – | – | COc1cc(N2CCC(N3CCN(C)CC3)CC2)c(-c2cnn(C)c2)cc1Nc1ncc(Br)c(Nc2ccc3nccnc3c2P(C)(C)=O)n1 [Compound 10]
